Data on 80 compounds can be found in the METLIN SMRT retention time set (Domingo-Almenara et al. 2019).

SMILES strings stand for the structures.

The nature of this data set: gradient 5% acetonitrile 3 min, to 50% in 2 min, to 85% in 15 min, held 3 min, 100 µL/min. The settings on record: column: Zorbax Extend-C18 2.1 x 50 mm; eluents: water / acetonitrile, 0.1% formic acid. In a few lines: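 The system's dead and dwell volumes were 40 μL and 900 μL, with a Zorbax Extend-C18 column (2.1 × 50 mm, 1.8 μm) run at 100 μL/min in water and acetonitrile containing 0.1% formic acid each. Pure standards were analyzed in mixtures of ~100 molecules by HPLC–quadrupole time-of-flight mass spectrometry in positive and negative ionization mode. Retention time was assigned from computationally picked, manually inspected adduct peaks.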
Turning to `O=C(c1ccc(F)c(F)c1)N1CCN(c2cc(-c3cccnc3)[nH]n2)CC1`, the RP-LC retention time amounted to 615 s.
The result for `CC(C)NC(=O)c1cc(N(C)C)nc2ccccc12` reads 587 s; that for `Cc1cc(C)cc(NC(=O)Cn2ncc3c(N4CCN(c5ccccn5)CC4)ncnc32)c1`, 606 s.
`CCn1nc(CNC(=O)c2cc(C)cc(C)c2)c2ccccc21`: the RP-LC retention time stood at 938 s.
As for `Cc1cccc(OCc2nc(CCN(C)C(=O)Nc3cc(F)ccc3F)no2)c1`, the RP-LC retention time came to 1000 s.
The result for `O=C(Cn1c(=O)cc(-c2nc(C3CC3)no2)c2ccccc21)Nc1ccccc1` reads 937 s; that for `N#Cc1ccc(S(=O)(=O)N2CCC(c3cc(N)on3)CC2)cc1`, 737 s; that for `Cc1ccc(S(=O)(=O)NC(=O)Nc2nccs2)cc1`, 751 s.
As for `CN(C)S(=O)(=O)c1ccc(-c2nnc(C(=O)N3CCC4(CC3)OCCO4)o2)cc1`, the figure is 746 s; as for `O=C(Cn1nc2n(c1=O)CCCC2)N1CCN(c2ccccc2F)CC1`, 679 s.
The result for `CCn1cc(-c2nc(CC(=O)NCc3cccs3)cs2)c2cccnc21` reads 805 s.
As for `Cn1cc(CC(=O)NCc2ccc(F)cc2F)c2cccnc21`, the RP-LC retention time turned out to be 688 s.
Compound `CCC(C)C(=O)NC1CCN(C2=NS(=O)(=O)C(c3ccc(F)cc3)=C2C)CC1` (stereo not given) returned an RP-LC retention time of 785 s.
`Cc1nc(C)c(C(=O)N2CCCn3cc(-c4ccccc4F)nc32)s1` showed an RP-LC retention time of 679 s.
In the case of `Cc1ccc(CNC(=O)c2ccc3ccnc(N4CCN(c5ccccc5)CC4)c3c2)o1`, the RP-LC retention time came out at 819 s.
As for `CN1c2cc(F)ccc2C(=O)NC12CCN(C(=O)c1ccccc1F)CC2`, the figure is 751 s; as for `COc1ccc(OCC(=O)Nc2ccc3c(c2)N(C(C)=O)CCC3)cc1`, 782 s; as for `CCCS(=O)(=O)N1CCC(C2CCN(C(=O)NC)CC2)C1` (stereo not given), 659 s.
The result for `CCc1ccc(NC(=O)C2CCc3nc(N(CC)CC)ncc3C2)cc1` (stereo not given) reads 799 s.
As for `Cc1oc(-c2ccc(Cl)cc2)nc1CN1CCCC(C(=O)NC2CCCCCC2)C1` (stereo not given), the figure is 810 s; as for `COc1ccc(S(=O)(=O)N2CCN(c3cc(C)nc(NC4CCCCC4)n3)CC2)cc1OC`, 756 s.
On to `CC(C)c1cccc(N2C=C(C(=O)N3CCCCC3)S(=O)(=O)c3ccccc32)c1`, for which the RP-LC retention time was found to be 1010 s.
The result for `COc1cc(NC(=O)CN2C(=O)C(C)(C)c3ccccc32)cc(OC)c1` reads 876 s; that for `CCCS(=O)(=O)Nc1cccc(-c2cn3ccccc3n2)c1`, 608 s.
As for `CCc1nc(-c2ccc(-c3noc(CNC(=O)c4ccco4)n3)cc2)cs1`, the figure is 924 s; as for `Cc1ccc(Nc2c(-c3ccc(Cl)cc3)nc3ccccn23)cc1`, 787 s.
The result for `Cc1cccc(/C=C/c2ccccc2)n1` reads 664 s.
The compound `CCOC(=O)c1nc(N2CCc3ccccc32)c2ccccc2n1` gave an RP-LC retention time of 935 s.
Take `COc1cccc(NC(=O)NC2CCN(c3ccc(F)c(C)c3)C2=O)c1` (stereo not given): the RP-LC retention time was determined as 818 s.
As for `O=C(CN1C(=O)C(C(=O)N2CCCC2)Sc2ccccc21)N1CCN(c2cccc(Cl)c2)CC1` (stereo not given), the RP-LC retention time was 923 s.
As for `Cc1ccc(-c2cn3c(CC(=O)NC4CCCC4)csc3n2)cc1C`, the figure is 798 s; as for `CCc1noc(NC(C)=O)c1-c1ccc(OC)c(S(=O)(=O)Nc2ccc3c(c2)OCCO3)c1`, 736 s; as for `Cc1cc(NC(=O)CN2C(=O)C(C(=O)N3CCCC3)Sc3ccccc32)ccc1Br` (stereo not given), 971 s.
With `COc1ccc(-c2cc3n(n2)CCCN(C(=O)c2cccnc2)C3)cc1`, the RP-LC retention time amounted to 665 s.
The result for `O=C(CSCCc1ccccn1)Nc1c(F)c(F)c(F)c(F)c1F` reads 643 s.
As for `COc1ccc(-c2csc3c(=O)n(Cc4ccc(F)cc4)cnc23)cc1OC`, the figure is 951 s.
As for `O=C(c1ccc(OC(F)(F)F)cc1)N1C[C@@H]2C[C@H]1C[C@@H]2NS(=O)(=O)c1ccccc1`, the figure is 884 s; as for `CCc1cc2c3c([nH]c2cc1S(=O)(=O)N1CCN(c2ccccn2)CC1)CC(C)(C)CC3=O`, 695 s; as for `CCC1CCCCN1C(=O)CC1CCN(S(=O)(=O)c2ccc3c(c2)oc(=O)n3C)CC1` (stereo not given), 872 s.
As to `Cc1ccc(F)cc1S(=O)(=O)N1CCC2(CCN(c3cccnc3)C2)C1` (stereo not given), the RP-LC retention time was found to be 685 s.
The result for `COCCO[C@H]1C(=O)N(C2CCN(S(C)(=O)=O)CC2)[C@H]1c1ccncc1` reads 543 s; that for `Cc1nn(-c2cc(N(C)C)ncn2)c(C)c1CCC(=O)NCc1ccco1`, 684 s; that for `O=C(Cc1noc2ccccc12)NCCOc1ccc2nnc(-c3ccc(F)cc3)n2n1`, 679 s.
As for `COc1ccc(N2CCN(c3nc(C)cc(C)n3)CC2)cc1`, the figure is 745 s; as for `O=C(NCc1ccccc1Cl)C1CCc2nc(N3CCOCC3)ncc2C1` (stereo not given), 726 s; as for `Cc1nn(C)c(C)c1CNC(=O)c1ccc2nc(Cc3ccccc3)oc2c1`, 714 s.
As for `CCNc1nc(N(C)C)nc(-n2cnc(SC)n2)n1`, the figure is 784 s; as for `Cc1ccc(NC(=O)N(C)Cc2ccoc2)cc1`, 647 s; as for `CCc1nc(-c2csc(S(=O)(=O)N3CCC(C(=O)N4CCCCCC4)CC3)c2)no1`, 955 s.
With `Cc1ccc(C)c(N2CCN(C(=O)Cn3ccc4ccc(N5CCOCC5)nc43)CC2)c1`, the RP-LC retention time was 1110 s.
As for `CC(C)CC(=O)N1CCC2(CC1)C(=O)N(C)c1ccccc12`, the figure is 766 s; as for `O=C(NCc1ccc(Cl)cc1)c1cn2c(n1)COCC2`, 678 s; as for `COc1ccccc1CNc1ncnc(N)c1[N+](=O)[O-]`, 735 s.
Take `O=C(Nc1ccc2c(c1)OCCO2)C1CCN(C(=O)c2cc(-c3cccnc3)n[nH]2)CC1`: the RP-LC retention time is 655 s.
For the compound `CC1CCCN(c2ccc(-c3noc(CN(C)C4CCCCC4)n3)cn2)C1` (stereo not given), the RP-LC retention time was determined as 721 s.
With `Cc1ccc(CNC(=O)N2CCCC(C)(C(=O)NCc3ccc(F)cc3)C2)cc1` (stereo not given), the RP-LC retention time was found to be 890 s.
As for `C=C1C(=O)C23CC[C@@H]4C(C)(C(=O)OC)CCCC4(C)[C@@H]2CCC1(O)C3` (stereo not given in full), the figure is 902 s; as for `CCN(CC)C(=O)Cn1nc2cc(C)nc(-c3ccc(C(F)(F)F)cc3)n2c1=O`, 841 s.
Regarding `COc1ccc(C2C(C(=O)NCCC(C)C)CCC(=O)N2c2cc(OC)c(OC)c(OC)c2)cc1` (stereo not given), the RP-LC retention time is 744 s.
As for `CN(C)c1ccc(CNC(=O)CCc2c(-c3ccc(Cl)cc3)nc3ccccn23)cc1`, the figure is 588 s; as for `COCc1c(C(=O)O)nnn1-c1ccc(C)c(C)c1`, 757 s; as for `COc1ccc(-c2cc(N3CCN(C(=O)Nc4cc(OC)ccc4OC)CC3)ncn2)cc1`, 685 s.
As for `CCNC(=O)c1n[nH]c2c1CN(C(=O)c1cccc(Br)c1)CC2`, the figure is 678 s; as for `O=C(Cc1ccc(Cl)cc1)NC1CCN(c2nnc3ccc(C(F)(F)F)cn23)CC1`, 799 s; as for `COc1ccc(-c2ncc3c(n2)CCN(C(=O)Nc2cccc(Br)c2)C3)cc1`, 1010 s.
For `CCn1nccc1C(=O)N1C[C@@H](CO)[C@H](NC(C)=O)C1`, the RP-LC retention time was 514 s.
The compound `O=C(Nc1nnc2n1CCS2)c1ccc2c(c1)OCO2` gave an RP-LC retention time of 590 s.
The result for `O=C1NCCCn2cc(S(=O)(=O)Nc3ccc(Cl)cc3)cc21` reads 682 s; that for `O=S(=O)(Cc1ccccc1)N1CCc2nc(-c3ccc(Cl)cc3)ncc2C1`, 1150 s.
The result for `Cc1noc(C)c1S(=O)(=O)N1CCc2c(c(-c3nnc(-c4ccccc4)o3)nn2C)C1` reads 880 s; that for `CCNC(=O)c1nnn(-c2cc(C(F)(F)F)ccc2Cl)c1-c1cccnc1`, 796 s.
As for `CCOC(=O)c1noc2ncnc(NCCCN3CCN(c4ccc(F)cc4)CC3)c12`, the figure is 599 s.
Compound `CCOC(=O)c1c(C)[nH]c(C(=O)N2CCC(C(C)C(=O)NCc3ccc4c(c3)OCO4)CC2)c1C` (stereo not given) returned an RP-LC retention time of 778 s.
`COc1cc(-c2cc(CN(CC3CCCO3)C(=O)C3CCCCC3)no2)cc(OC)c1OC` (stereo not given) gave an RP-LC retention time of 968 s.
As for `CC(C)NC(=O)CCC1CCN(c2cc(NC3CC3)ncn2)CC1`, the figure is 551 s.
Compound `O=C(Cn1c(=O)cc(C(=O)N2CCCC2)c2ccccc21)Nc1cc(F)ccc1F` came in with an RP-LC retention time of 737 s.
The result for `CC(=O)NCc1csc(C2CCCN(C(=O)c3cc(F)cc(F)c3)C2)n1` (stereo not given) reads 684 s.
The compound `Cc1nc(N2CCN(Cc3ccccc3)CC2)nc2c1C(=O)CC(c1ccc(Cl)cc1)C2` (stereo not given) had an RP-LC retention time of 825 s.
The result for `CCCCC(=O)NC1(C(F)(F)F)C(=O)N(Cc2ccccc2)C(C)=C1C(=O)OC` (stereo not given) reads 989 s.
As for `COc1ccc(C(=O)N2CCN(c3ccc(-c4nc(C)cs4)cn3)CC2)cc1`, the figure is 805 s.
